Reference: paper PMC6541551 (Journal of psychopharmacology (Oxford, England), 2018)
“Also recorded” adds a separate entry of the source. Marks after values point to notes of the source that are not given here.

Columns and labels:
[1] = Mouse pharmacokinetic studies of; format: in vivo, CD-1 mice
[2] = Rat pharmacokinetic study of; format: in vivo, Sprague-Dawley rats; settings: for AUC/dose: plasma
Screening of = format: in vivo, CD-1 mice; settings: male mice, three timepoints; for Cmax of (2R,6R)-HNK in plasma: 50 mg/kg of the compound
mice [3] = test: Open-field test; format: in vivo, CD-1 mice; settings: vs saline; for Open-field total distance travelled: 15, 50, 150, 450 mg/kg p.o., 60 min after administration
mice [4] = test: Adverse effects screening; format: in vivo, CD-1 mice
mice [5] = test: Forced-swim test; format: in vivo, CD-1 mice; settings: vs saline
mice [6] = test: Learned helplessness test; format: in vivo, CD-1 mice; settings: vs saline; for Learned helplessness: escape failures in the last 10 trials: p<0.001
[7] = Canine pharmacokinetic study of; settings: for AUC0→∞ / t1/2 / Cmax: dog plasma
[8] = brain, female mice, i.v., 50 mg/kg
[9] = brain, female mice, p.o., 50 mg/kg
[10] = brain, male mice, i.p., 50 mg/kg
[11] = brain, male mice, i.v., 50 mg/kg
[12] = male mice, p.o., 50 mg/kg, cohort p.o. vs i.p.
[13] = male mice, p.o., 10 min, cohort p.o. vs i.v.
[14] = plasma, female mice, i.v., 50 mg/kg
[15] = plasma, female mice, p.o., 50 mg/kg

For `N[C@@]1(c2ccccc2Cl)CCC[C@@H](O)C1=O` [(2R,6R)-HNK, (2R,6R)-hydroxynorketamine], the “AUC0→∞” value [1, 8] was 9.53 µg·h/g, the t1/2 [1, 8] was 36 min and the “AUC0→∞” value [1, 9] was 6.96 µg·h/g. The t1/2 [1, 9] was 42 min, the Cmax ([1]; brain, female mice, p.o., single 50 mg/kg) was 11.6 µg/g and the “AUC0→∞” value [1, 10] was 4.94 µg·h/g. For the same compound, the t1/2 [1, 10] was 24 min, the Cmax ([1]; brain, male mice, i.p., single 50 mg/kg) was 12.7 µg/g and the “AUC0→∞” value [1, 11] was 8.38 µg·h/g. For the same compound, the t1/2 [1, 11] was 30 min, the t1/2 ([1]; brain, male mice, p.o., 50 mg/kg) was 42 min and the “AUC0→∞” value ([1]; brain, male mice, p.o., 50 mg/kg, range of two cohorts) was 2.85−5.19 μg/g×h. The Cmax ([1]; brain, male mice, p.o., single 50 mg/kg, range of two cohorts) was 6.49−8.60 μg/g, the “Absolute BA (plasma AUC0→∞ p.o. / i.v.)” value ([1]; female mice, 50 mg/kg) was 52% and the “maximal levels p.o. lower than i.v.” value ([1]; female mice, 50 mg/kg, plasma) was 1.7 ×. The Cl ([1]; female mice, i.v.) was 3.06 L/h/kg, the Vss ([1]; female mice, i.v.) was 0.80 L/kg and the “Brain to plasma ratio” value ([1]; female mice, i.v., 50 mg/kg) was 0.67. For the same compound, the AUC/dose ([1]; female mice, i.v., plasma) was 0.330 µg·kg·h/mL/mg, the “Brain to plasma ratio” value ([1]; female mice, p.o., 50 mg/kg) was 0.95 and the AUC/dose ([1]; female mice, p.o., plasma) was 0.170 µg·kg·h/mL/mg. For the same compound, the “Absolute BA (plasma AUC0→∞ p.o. / i.v.)” value ([1]; male mice, 50 mg/kg) was 46%, the “maximal brain concentration p.o. as % of i.p.” value ([1]; male mice, 50 mg/kg) was 51% and the “maximal plasma concentration p.o. as % of i.p.” value ([1]; male mice, 50 mg/kg) was 44.1%. For the same compound, the “Relative BA (plasma AUC0→∞ p.o. / i.p.)” value ([1]; male mice, 50 mg/kg, five timepoints) was 62%, the “highest concentrations p.o. lower than i.p. and i.v.” value ([1]; male mice, 50 mg/kg, plasma and brain) was 2–3 fold and the “brain concentration p.o. as % of i.v.” value ([1]; male mice, 10 min after dosing, 50 mg/kg) was 42%. The “Brain to plasma ratio” value ([1]; male mice, i.p., 50 mg/kg) was 0.96, the Cl ([1]; male mice, i.v.) was 4.44 L/h/kg and the Vss ([1]; male mice, i.v.) was 1.7 L/kg. The “Brain to plasma ratio” value ([1]; male mice, i.v., 50 mg/kg) was 0.86, the AUC/dose ([1]; male mice, i.v., plasma, normalized to free drug dose) was 0.226 µg·kg·h/mL/mg and the maximal brain concentration [1, 12] was 6.49 µg/g. For the same compound, the maximal plasma concentration [1, 12] was 5.90 µg/mL, the “Brain to plasma ratio” value ([1]; male mice, p.o., 50 mg/kg, range of two cohorts) was 0.90−1.16 and the “brain concentration at earliest timepoint” value [1, 13] was 8.60 µg/g. For the same compound, the “plasma concentration at earliest timepoint” value [1, 13] was 5.64 µg/mL, the “Brain to plasma exposure ratio (brain penetrance)” value ([1]; male mice, p.o., cohort p.o. vs i.p.) was 0.90 and the “Brain penetrance (brain to plasma ratio)” value ([1]; male mice, p.o., cohort p.o. vs i.v.) was 1.16. For the same compound, the AUC/dose ([1]; male mice, p.o., plasma, normalized to free drug dose) was 0.104 µg·kg·h/mL/mg, the “Brain to plasma ratio” value ([1]; mice and rats, following oral administration (abstract)) was 0.67–1.2 and the “Brain to plasma ratio” value ([1]; mice, both sexes and all routes of administration) was 0.67–1.2. The clearance ([1]; mice, i.v., range of sexes) was 3.06 to 4.44 L/h/kg, the “dose-normalized plasma exposure (AUC/dose)” value ([1]; mice, i.v., range of sexes) was 0.226 to 0.330 µg·kg·h/mL/mg and the “highest plasma concentrations in females higher than in males” value ([1]; mice, p.o. and i.v., 50 mg/kg) was 1.5–2.6 ×. The “dose-normalized plasma exposure (AUC/dose)” value ([1]; mice, p.o., range of sexes) was 0.104 to 0.170 µg·kg·h/mL/mg, the Tmax ([1]; mice, plasma and brain, all routes (i.p., p.o., i.v.), 50 mg/kg) was 10 min and the “half-life (t1/2)” value ([1]; mice, plasma, range over routes and sexes) was 12 to 48 min. The “absolute oral BA” value ([1]; mice, range of males and females) was 46–52%, the “AUC0→∞” value [1, 14] was 14.2 µg·h/mL and the t1/2 [1, 14] was 12 min. For the same compound, the “AUC0→∞” value [1, 15] was 7.33 µg·h/mL, the t1/2 [1, 15] was 18 min and the Cmax ([1]; plasma, female mice, p.o., single 50 mg/kg) was 14.7 µg/mL. The t1/2 ([1]; plasma, male mice, i.p., 50 mg/kg) was 30 min, the “AUC0→∞” value ([1]; plasma, male mice, i.p., single 50 mg/kg) was 5.12 µg·h/mL and the Cmax ([1]; plasma, male mice, i.p., single 50 mg/kg (43.1 mg/kg free base), five timepoints) was 13.4 µg/mL. The t1/2 ([1]; plasma, male mice, i.v., 50 mg/kg) was 30 min, the “AUC0→∞” value ([1]; plasma, male mice, i.v., single 50 mg/kg) was 9.76 µg·h/mL and the t1/2 ([1]; plasma, male mice, p.o., 50 mg/kg) was 48 min. The “AUC0→∞” value ([1]; plasma, male mice, p.o., single 50 mg/kg, range of two cohorts) was 3.18−4.49 μg/mL×h, the Cl ([2]; male rats, i.v.) was 1.62 L/h/kg and the Vss ([2]; male rats, i.v.) was 7.5 L/kg. For the same compound, the AUC/dose ([2]; male rats, i.v.) was 0.627 µg·kg·h/mL/mg, the AUC/dose ([2]; male rats, p.o.) was 0.265 µg·kg·h/mL/mg and the “AUC0→∞” value ([2]; rat brain, i.v., 10 mg/kg) was 6.09 µg·h/mL. For the same compound, the t1/2 ([2]; rat brain, i.v., 10 mg/kg) was 528 min, the Cmax ([2]; rat brain, i.v., 10 mg/kg, measured five minutes after dosing, not actual peak) was 9.13^a μg/mL and the “AUC0→∞” value ([2]; rat brain, p.o., 10 mg/kg) was 2.58 µg·h/mL. The Cmax ([2]; rat brain, p.o., 10 mg/kg) was 1.52 µg/mL, the t1/2 ([2]; rat brain, p.o., 10 mg/kg) was 342 min and the “AUC0→∞” value ([2]; rat plasma, i.v., 10 mg/kg) was 6.27 µg·h/mL. The t1/2 ([2]; rat plasma, i.v., 10 mg/kg) was 480 min, the Cmax ([2]; rat plasma, i.v., 10 mg/kg, measured five minutes after dosing, not actual peak) was 9.56^a μg/mL and the “AUC0→∞” value ([2]; rat plasma, p.o., 10 mg/kg) was 2.65 µg·h/mL. For the same compound, the t1/2 ([2]; rat plasma, p.o., 10 mg/kg) was 414 min, the Cmax ([2]; rat plasma, p.o., single 10 mg/kg (free drug dose), eight timepoints) was 1.50 µg/mL and the “BA (absolute oral)” value ([2]; rats, 10 mg/kg p.o. vs i.v., plasma AUC0→∞) was 42%. For the same compound, the “Brain to plasma ratio” value ([2]; rats, both i.v. and p.o., 10 mg/kg) was 0.97, the “time of peak concentration” value ([2]; rats, plasma and brain, i.v., 10 mg/kg) was 0.083 h and the “Relative BA (plasma AUClast p.o. / i.p.)” value (Screening of; 50 mg/kg) was 47%. The “Cmax of (2R,6R)-HNK in plasma” value (Screening of; i.p.) was 13.4 µg/mL, the “AUClast of (2R,6R)-HNK in plasma” value (Screening of; i.p., 50 mg/kg) was 5.91 µg·h/mL and the “Cmax of (2R,6R)-HNK in plasma” value (Screening of; p.o.) was 5.90 µg/mL. The “AUC (systemic exposure to (2R,6R)-HNK)” value (Screening of; p.o., 50 mg/kg) was 2.80 µg/mL/h, the “AUClast of (2R,6R)-HNK in plasma” value (Screening of; p.o., 50 mg/kg) was 2.80 µg·h/mL and the “Open-field total distance travelled” value (mice [3]) was “did not alter the total distance travelled at any dose tested”. The “Open-field total distance travelled” value (mice [3]; listed as (2R,6R)-hydroxynorketamine) was “did not alter locomotor activity”, the “Open-field time spent in the center (central 50%) of the arena” value (mice [3]; 15-450 mg/kg p.o., 60 min) was “no significant effect; also recorded: did not alter” and the “Backwards movement, mean score±SEM” value (mice [4]; 450 mg/kg p.o., 60 min) was 0. For the same compound, the “Ptosis, mean score±SEM” value (mice [4]; 450 mg/kg p.o., 60 min) was 0, the “Sniffing, mean score±SEM” value (mice [4]; 450 mg/kg p.o., 60 min) was 0 and the “Tail flicking, mean score±SEM” value (mice [4]; 450 mg/kg p.o., 60 min) was 0. For the same compound, the “Piloerection, mean score±SEM” value (mice [4]; 450 mg/kg p.o., observed over 60 min, n=4/group) was 0.25±0.25, the Overall adverse effects (mice [4]; up to a dose of 450 mg/kg p.o.) was “minimal, if any, adverse effects” and the “Forced-swim test immobility time” value (mice [5]; 15 mg/kg i.p., 24-hour re-test, p<0.01) was “reduced immobility time”. For the same compound, the “Forced-swim test immobility time” value (mice [5]; 15 mg/kg i.p., one hour after administration, p<0.05) was “reduced immobility time”, the “Forced-swim test immobility time” value (mice [5]; 15-150 mg/kg p.o., 24 h after treatment, p<0.01) was “reductions in immobility time” and the “Forced-swim test immobility time” value (mice [5]; 15-150 mg/kg p.o., one hour after treatment, p<0.05) was “reductions in immobility time”. For the same compound, the “Learned helplessness: escape failures in the last 10 trials” value (mice [6]; 50 mg/kg i.p., 24 h after treatment) was “reduced”, the “Learned helplessness: total number of escape failures” value (mice [6]; 50 mg/kg i.p., tested 24 h after treatment, p<0.01) was “reduced the total number of escape failures” and the “Learned helplessness: escape failures in the last 10 trials” value (mice [6]; 50 and 150 mg/kg p.o., 24 h after treatment) was “robust reduction in the number of escape failures; also recorded: effective at reversing helplessness”. For the same compound, the “Learned helplessness: total number of escape failures” value (mice [6]; 50 and 150 mg/kg p.o., 24 h after treatment, p<0.05) was “robust reduction in the number of escape failures; also recorded: effective at reversing helplessness”, the “AUC0→∞” value ([7]; i.v., 10 mg/kg) was 7.83 µg·h/mL and the t1/2 ([7]; i.v., 10 mg/kg) was 96 min. For the same compound, the Cmax ([7]; i.v., 10 mg/kg, measured five minutes after dosing, not actual peak) was 8.87^a μg/mL, the “AUC0→∞” value ([7]; p.o., 10 mg/kg) was 4.54 µg·h/mL and the t1/2 ([7]; p.o., 10 mg/kg) was 90 min. The Cmax ([7]; p.o., single 10 mg/kg (free drug dose)) was 3.44 µg/mL, the “BA (absolute oral)” value ([7]; dogs, 10 mg/kg p.o. vs i.v.) was 58% and the “time of peak plasma concentration” value ([7]; dogs, i.v., 10 mg/kg, first collection time point) was “five minutes”. For the same compound, the Tmax ([7]; dogs, plasma, p.o., 10 mg/kg) was 16.8 min, the Cl ([7]; male dogs, i.v.) was 1.26 L/h/kg and the Vss ([7]; male dogs, i.v.) was 1.2 L/kg. For the same compound, the AUC/dose ([7]; male dogs, i.v., plasma) was 0.783 µg·kg·h/mL/mg and the AUC/dose ([7]; male dogs, p.o., plasma) was 0.454 µg·kg·h/mL/mg.
